Results published in PMC8647499, “Preclinical evaluation of strasseriolides A–D, potent antiplasmodial macrolides isolated from Strasseria geniculata CF-247,251” (Malaria Journal, 2021).
Several values for one entry are separate records, joined by “and”; a condition that tells them apart may be missing. Identical values can stand only once. Like-named read-outs stand apart in the source and are kept apart here.

Legend:
[1] = system: transgenic P. berghei line 676m1cl1 (PbGFP-Luccon), ANKA strain; test: In vivo efficacy in P. berghei infected mice (luciferase activity); set-up: species or system Plasmodium berghei in Swiss Webster female mice; settings: chloroquine 20 mg/kg; for Parasitaemia (Luminescence arbitrary units), Average ± SD: 4 days from 48 h post-infection
Protocol: In vivo efficacy experiments were performed at the Anti-infectives Screening Core Services facility of the New York University School of Medicine. The transgenic P. berghei line 676m1cl1 parasite (PbGFP-Luccon) expressing the fusion GFP (mutant 3) and firefly luciferase (LucIAV) proteins generated in the reference clone of ANKA strain cl15cy1 was used. Swiss Webster female mice were infected with transgenic P. berghei line 676m1cl1 (PbGFP-Luccon) ANKA-infected 10³ red blood cells. Treatment was then started 48 h post-parasite infection by i.p. dosage of 22 mg/kg of strasseriolide D and 50 mg/kg of strasseriolide C. Vehicle only (PBS 2% methylcellulose, 0.5% Tween 80) and 20 mg/kg chloroquine were used as negative and positive controls. The infected mice were treated for four days, after which luciferase activity of the parasites was quantified 5 to 10 min after i.p. injection of 150 mg/kg D-Luciferin Potassium-salt (Goldbio) dissolved in PBS using an IVIS® Lumina II imager on the fifth day.
The Genedata Screener online application (Genedata AG, Basel, Switzerland) was used to compute IC50 values. The Smart Fit strategy with Hill model was selected as the choice for curve fitting. Where applicable, data are presented as mean ± standard deviation (SD). In Fig. 3, the significant differences between the vehicle controls and test compounds were calculated by the Student’s t test.

[2] = system: Plasmodium falciparum strain 3D7 whole parasites; set-up: method as in PMID 32808790; settings: in vitro, read-out: IC50 against Plasmodium falciparum strain 3D7; cited from earlier work
[3] = Quantification of compounds in mice plasma by LC-MS-MS and PK parameters after i.v. injection; format: in vivo; settings: for Plasma Conc. @Tinitial: mice, Tinitial 0.5 h (A, C), 0.13 h (B), 1.5 h (D)
Protocol: (§1) Three Balb/C mice (6–8 weeks old) were intravenously injected with 25 mg/kg of strasseriolide D dissolved in 200 µL of vehicle (0.5%HPMC, 0.5% Tween 80 and 0.5% Benzyl alcohol in water). Blood samples were collected by pricking the […] on the leg of each mouse at time points 1.5 (T 1.5 h), 5 (T 5 h) and 24 h (T 24 h). From the harvested blood, 50 µL plasma were prepared for all the samples and stored at -80 °C until needed. A previously developed LC–MS–MS method (see supporting information) was used to determine the plasma concentration of strasseriolide D as described below.
Ten millimolar (10 mM) DMSO stocks of strasseriolide D (the test compound) and strasseriolide A (used as internal standard,) were prepared. From the strasseriolide D stock, a 59.7 µM (27,000 ppb) working concentration was made in DMSO and an aliquot of this was serially diluted (½) in reconstitution solution (1:1 of acetonitrile: H2O with 0.1% formic acid) to create a six-point calibration curve in triplicate. Three different quality control (QC) concentrations of strasseriolide D at 59.7, 0.74, and 0.25 µM (i.e. 27,000 ppb, 333 ppb and 111 ppb) were also prepared in duplicate. From the strasseriolide A (internal standard) stock, a 6.2 µM (2700 ppb) working concentration was prepared in DMSO.
Blank mouse plasma (prepared from non-injected mouse) was retrieved from the freezer (− 80 °C) and kept on ice to thaw. The sample was vortexed adequately and 15 µL aliquots transferred into 0.7 mL Eppendorf tubes after which 35 µL of Milli-Q water were added and vortexed. Triplicate sets of the diluted plasma were then respectively spiked with 2 uL of each concentration of the calibration curves of strasseriolide D. Another triplicate set of the diluted plasma was spiked with 2 µL of each concentration of the standard QC solutions. All the above samples were also spiked with 2 µL of strasseriolide A (the internal standard)). To serve as blank samples, a fresh triplicate set of diluted plasma were spiked with 4 µL of DMSO. Non-matrix samples were also prepared by spiking 100 µL aliquots of reconstitution solution with 2 µL of the standard QC solutions and 2 µL of internal standard.
Fifteen microlitres (15 µL) plasma from the various time points of the strasseriolide D-injected mice, were respectively transferred into 0.7 mL Eppendorf tubes. To each sample, 37 µL of Milli-Q water were added, vortexed and spiked with 2 µL of strasseriolide A (internal standard). Two hundred microlitres (200 µL) of ice-cold acetonitrile were added to all of the matrix (plasma-containing) samples and centrifuged at 13,300 rpm for 15 min at 4 °C. Subsequently, 180 µL aliquots were carefully transferred (without disturbing the protein precipitate) from each tube into clean HPLC vials and evaporated to dryness in an EZ2 Genevac at room temperature. The dried samples were then reconstituted in 40 µL of reconstitution solution by vortexing. The samples were placed in an auto-sampler drawer for LC–MS–MS analysis and quantification of strasseriolide D (the test compound) in mice plasma.
(§2) Similar sample preparation and LC–MS–MS analysis were respectively performed for mice intravenously injected with strasseriolides A and C as test compounds and mice blood samples collected at 30 min (T 30 M), 2 h (T 2 h), 6 h (T 6 h) and 24 h (T 24 h). […] For strasseriolides A, B and C as test compounds; strasseriolides C, D and B were respectively used as internal standards. After LC–MS–MS analysis, the plasma concentration of compound vs. time data was determined for each strasseriolide.
116 Table S2. QC table used to calculate the precision and accuracy of the method.
Compound Expected No. Experimental STD % %
conc. in values mean conc. deviation CV Accuracy
118 (5) The mean recovery rate for the test compound (strasseriolide B) – this was calculated
119 to be 29 % by comparing the plasma QC peak area ratios at the established retention time […]

mice = test: In vivo toxicity in mice after i.v. injection
Protocol: as §1, §2
Animals were observed individually at 15, 30 and 60 min after dosing and periodically during the first 24 h for any clinical signs of toxicity or mortality. The toxicity evaluation was carried out by observing behaviour parameters, including the Grimace scale parameters. The mice were sacrificed, and the main organs were examined by visual inspection during autopsy.

[4] = Metabolic stability assay in human liver microsomes; format: in vitro ADME; settings: for half-life: pH 7.4, 1 mg/mL protein; for Clearance Category: ranked by CLint
Protocol: Pretreatment of the 96-well ABgen-0765 reaction plates was the same as previously described above. Two microlitres (2 µL) of compounds (previously dissolved in DMSO) were pre-incubated with 98 µL of cofactor/buffer solution (0.1 M phosphate buffer of pH 7.4, 100 mM K3PO4, 3.3 mM MgCl2, 3.3 mM G6P, 1.3 mM NADPH, and 0.4 u/mL G6PDH) at 37 °C for 10 min. The reactions were then initiated by the addition of 100 µL of HLM solution (at final protein concentration of 1 mg/mL), after which they were stopped at pre-determined incubation times of 0, 10, 15, 30, 45 and 60 min by adding 90 µL acetonitrile containing internal LC–MS–MS standards and shaking at 180 Hz. The samples were centrifuged to sediment the protein precipitates and the supernatants were analysed by LC–MS–MS as previously described above. The integration of each analyte (the […]) and internal standard peak area was performed by the Analyst® software version 1.5.2 and used to calculate the percentage of remaining compound at each incubation time. The natural logarithm of the percentage of the remaining parent compound was plotted against the incubation time and used to calculate the half-life by the following equation:
Half-life (T ½ min) = 0.693/k, where k is the slope of a plot of the natural log of the percentage parent compound remaining vs. time.
The intrinsic clearance (CLint) was determined by the equation: CLint
=Ln2/t1/2min∗volumeincubationmL/microsomalproteinmg∗45MPPGL1500ghumanliver/70kghumanbodyweightj
Units for CLint were expressed as mL/min/mg microsomal protein and MPPGL = mg microsomal protein per gram liver.

HepG2 liver cells = system: HepG2 liver cells; set-up: method as in PMID 32808790; settings: cited from earlier work
[5] = Balb/C, mouse, in vivo, iv, 25 mg/kg
[6] = Balb/C, mouse, in vivo, iv, 25 mg/kg, 24 h
[7] = Balb/C, mouse, in vivo, iv, 25 mg/kg, Ave. Conc. in plasma

Q: With `CCN(CC)CCCC(C)Nc1ccnc2cc(Cl)ccc12` (stereo not drawn) [Chloroquine, chloroquine, reference compound] as the compound, how does the “Parasitaemia (Luminescence arbitrary units), Average ± SD” value ([1]; Table S7/Fig. 3A experiment: strasseriolide C 50 mg/kg i.p., read day 5, four replicates) read?
A: The value was 0.00 Luminescence arbitrary units.

Q: What about the “Parasitaemia (Luminescence arbitrary units), single replicates” value ([1]; Table S7 experiment: strasseriolide C 50 mg/kg i.p., individual mice) of the same compound?
A: Its value is 0.00 Luminescence arbitrary units.

Q: And the “Parasitaemia (Luminescence arbitrary units), Average ± SD” value ([1]; Table S8/Fig. 3B experiment: strasseriolide D 22 mg/kg i.p., read day 5, five replicates)?
A: The value was 3 × 10^3 Luminescence arbitrary units.

Q: What does the source list for `C/C1=C\[C@H](C)CCC(=O)/C(C)=C/[C@H](C)C[C@@H](C)CC[C@@H]([C@@H](C)C(=O)O)OC(=O)[C@@H](C)C1` [Strasseriolide A, strasseriolide A]?
A: IC50 [2]: 9.81 µM; AUC 0-t/0-inf_obs [3, 5]: 0.9738; AUC(0-inf) [3, 5]: 510 ng·h/mL and 1.17 µM·h; C0 [3, 5]: 378 ng/mL and 870 nM; Clast_obs/Cmax [3, 5]: 0.009713; Cmax [3, 5]: 216 ng/mL and 498 nM; MRT [3, 5]: 2.98 h; MRT inf [3, 5]: 2.99 h; Tmax [3, 5]: 0.5 h; Vss_obs [3, 5]: 0.1465 (mg/kg)/(ng/ml); Vz_obs (plasma distribution volume) [3, 5]: 312.4 L/kg; k el [3, 5]: 4.36e-05 s⁻¹; Calc. Conc. in plasma, individual mice [3, 6]: < 2.1 ng/mL; Plasma Conc. @T24 h [3, 6]: <4.8 nM; concentration at 8 min ([3]; Balb/C, mouse, in vivo, iv, 25 mg/kg, 24 h, read-out: Calc. Conc. in plasma, individual mice): < 0.00484 µM; AUC(0-t) ([3]; Balb/C, mouse, in vivo, iv, 25 mg/kg, AUC 0-t): 1.14 µM·h and 496 ng·h/mL; AUC(0-t) ([3]; Balb/C, mouse, in vivo, iv, 25 mg/kg, AUC0−t): 1.14 µM·h; concentration at 0.5 h [3, 7]: 498 nM; concentration at 2 h [3, 7]: 93.5 nM; concentration at 6 h [3, 7]: 11.6 nM; concentration at 24 h [3, 7]: < 4.84 nM; concentration at 24 h ([3]; Balb/C, mouse, in vivo, iv, 25 mg/kg, Calc. Conc. in plasma, individual mice): < 2.1 ng/mL and < 4.84 nM; concentration at 24 h ([3]; Balb/C, mouse, in vivo, iv, 25 mg/kg, Plasma Conc. @T24 h): < 4.8 nM; half-life ([3]; Balb/C, mouse, in vivo, iv, 25 mg/kg, T1/2 (apparent terminal elimination half-life)): 4.4 h; half-life ([3]; Balb/C, mouse, in vivo, iv, 25 mg/kg, t1/2): 4.41 h; Cl_obs ([3]; mouse, in vivo, iv, 25 mg/kg): 0.04907 (mg/kg)/(ng/ml)/h; in vivo toxicity / mortality in mice (mice; [6]): survived until 24 h post-i.v. injection; in vivo toxicity / mortality in mice (mice; mouse, in vivo, iv, 25 mg/kg): non-toxic; half-life [4]: 6.47 ± 1.05 min; Clearance Category [4]: High

Q: With `C/C1=C\[C@H](C)CC[C@@H](O)/C(C)=C/[C@H](C)C[C@@H](C)CC[C@@H]([C@@H](C)C(=O)O)OC(=O)[C@@H](C)C1` [Strasseriolide B, strasseriolide B] as the compound, how does the “in vitro toxicity against HepG2 liver cells” value (HepG2 liver cells) read?
A: The value was “no in vitro toxicity”.

Q: What about the IC50 [2] of the same compound?
A: The IC50 was 0.013 µM.

Q: What about the concentration at 8 min ([3]; Balb/C, mouse, in vivo, iv, 25 mg/kg, i.v. 25 mg/kg, T 8 minutes, read-out: Ave. Conc. in plasma) of the same compound?
A: The concentration at 8 min was 19.6 µM.

Q: And the concentration at 8 min ([3]; Balb/C, mouse, in vivo, iv, 25 mg/kg, i.v. 25 mg/kg, T 8 minutes, read-out: Calc. Conc. in plasma, individual mice)?
A: The concentration at 8 min was 8110 ng/mL and 18.6 µM.

Q: And the “Calc. Conc. in plasma, individual mice” value ([3]; i.v. 25 mg/kg, T 8 minutes)?
A: The value was 9098.0 ng/mL.

Q: What about the “Calc. Conc. in plasma, individual mice” value ([3]; i.v. 25 mg/kg, T 8 minutes, listed as strasseriolide B) of the same compound?
A: The value was 8419.0 ng/mL.

Q: What about the concentration at 8 min ([3]; i.v. 25 mg/kg, T 8 minutes, listed as strasseriolide B, read-out: Calc. Conc. in plasma, individual mice) of the same compound?
A: The concentration at 8 min was 19.3 µM.

Q: What about the concentration at 8 min ([3]; i.v. 25 mg/kg, T 8 minutes, read-out: Calc. Conc. in plasma, individual mice) of the same compound?
A: Its concentration at 8 min is 20.9 µM.

Q: And the “Plasma Conc. @Tinitial” value ([3]; i.v. 25 mg/kg)?
A: The value was 19600 nM.

Q: What about the “Plasma Conc. @Tinitial” value ([3]; i.v. 25 mg/kg, listed as B*) of the same compound?
A: Its value is 19600 ± 1200 nM.

Q: What about the “time to death of all injected mice” value (mice; i.v. 25 mg/kg) of the same compound?
A: Its value is “*Only Tinitial and the Plasma Conc @ Tinitial were recorded as all the mice injected with this compound died under 8 min”.

Q: What about the “in vivo toxicity / mortality in mice” value (mice; i.v. 25 mg/kg, three mice, observed 24 h) of the same compound?
A: The value was “all died just under eight minutes post-i.v. injection”.

Q: What about the “in vivo toxicity / mortality in mice at lower dosages” value (mice; i.v. 10, 5 and 1 mg/Kg) of the same compound?
A: Its value is “all resulted in death of the mice injected”.

Q: And the half-life [4]?
A: The half-life was 8.7 ± 2.4 min.

Q: What about the “Clearance Category” value [4] of the same compound?
A: The value was “High”.
